Target: T1, wild-type ENaC co-expressed with prostasin (Mus musculus, UniProt Q61180+Q9WU38+Q9WU39)
T1 construct: expressed in transfected cells; host or cells: Xenopus laevis oocytes (cRNA co-injection)
Assay: Two-electrode voltage clamp in oocytes co-expressing ENaC and prostasin
Assay type: cell-based
Conditions: α-26 1 μM and 10 μM, aprotinin 1 μM present
Description: Oocyte Expression—cRNAs for α, β, γ mouse ENaC (wild-type and mutant) subunits and mouse prostasin were synthesized with T3 or T7 m-Message mMachineTM (Ambion, Austin, Tex.). Subunits carrying furin cleavage consensus site mutations and the corresponding wild-type subunits have amino-terminal HA and carboxyl-terminal V5 tags (Hughey, R. P., Bruns, J. B., Kinlough, C. L., Harkleroad, K. L., Tong, Q., Carattino, M. D., Johnson, J. P., Stockand, J. D., and Kleyman, T. R. (2004) J. Biol. Chem. 279, 18111-18114 18). Stage V-VI Xenopus laevis oocytes were pretreated with 1.5 mg/ml of type IV collagenase and injected with 0.5-2 ng of cRNA/subunit. Injected oocytes were maintained as previously reported (Carattino, M. D., Hill, W. G., and Kleyman, T. R. (2003), Arachidonic Acid Regulates Surface Expression of Epithelial Sodium Channels, J Biol. Chem. 278, 36202-36213 29).
Two-electrode Voltage Clamp—Two-electrode voltage clamp (TEV) was performed as previously described (Carattino, M. D., Hill, W. G., and Kleyman, T. R. (2003) J Biol. Chem. 278, 36202-36213 29). The extracellular solution (TEV solution) was (in mM): 110 NaCl, 2 KCl, 1.54 CaCl2, 10 HEPES, pH 7.4, or otherwise as indicated. […] ENaC-mediated whole cell Na^+ currents, at −60 mV,were defined as the amiloride-sensitive component of the current. […]

T1 sequence (Q61180 1-205): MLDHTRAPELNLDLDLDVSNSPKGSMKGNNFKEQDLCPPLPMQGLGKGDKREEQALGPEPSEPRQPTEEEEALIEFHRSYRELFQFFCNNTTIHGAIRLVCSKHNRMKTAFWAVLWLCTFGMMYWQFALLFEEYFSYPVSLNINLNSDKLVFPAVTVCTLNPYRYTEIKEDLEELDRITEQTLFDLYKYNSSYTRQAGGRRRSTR
T1 sequence (Q61180 232-699): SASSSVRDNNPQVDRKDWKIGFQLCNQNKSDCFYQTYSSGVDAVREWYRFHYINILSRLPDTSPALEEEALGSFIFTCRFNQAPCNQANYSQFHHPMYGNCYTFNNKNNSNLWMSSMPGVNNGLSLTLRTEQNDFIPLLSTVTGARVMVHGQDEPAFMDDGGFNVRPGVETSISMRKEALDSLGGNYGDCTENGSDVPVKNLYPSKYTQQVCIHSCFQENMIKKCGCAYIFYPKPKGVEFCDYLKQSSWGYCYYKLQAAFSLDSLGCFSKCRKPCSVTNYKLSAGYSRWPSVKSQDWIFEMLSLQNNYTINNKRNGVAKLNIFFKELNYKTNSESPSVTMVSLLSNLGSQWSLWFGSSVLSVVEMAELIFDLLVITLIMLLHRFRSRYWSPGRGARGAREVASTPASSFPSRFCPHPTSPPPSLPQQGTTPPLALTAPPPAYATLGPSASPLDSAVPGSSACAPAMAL
T1 sequence (Q9WU38 whole entry): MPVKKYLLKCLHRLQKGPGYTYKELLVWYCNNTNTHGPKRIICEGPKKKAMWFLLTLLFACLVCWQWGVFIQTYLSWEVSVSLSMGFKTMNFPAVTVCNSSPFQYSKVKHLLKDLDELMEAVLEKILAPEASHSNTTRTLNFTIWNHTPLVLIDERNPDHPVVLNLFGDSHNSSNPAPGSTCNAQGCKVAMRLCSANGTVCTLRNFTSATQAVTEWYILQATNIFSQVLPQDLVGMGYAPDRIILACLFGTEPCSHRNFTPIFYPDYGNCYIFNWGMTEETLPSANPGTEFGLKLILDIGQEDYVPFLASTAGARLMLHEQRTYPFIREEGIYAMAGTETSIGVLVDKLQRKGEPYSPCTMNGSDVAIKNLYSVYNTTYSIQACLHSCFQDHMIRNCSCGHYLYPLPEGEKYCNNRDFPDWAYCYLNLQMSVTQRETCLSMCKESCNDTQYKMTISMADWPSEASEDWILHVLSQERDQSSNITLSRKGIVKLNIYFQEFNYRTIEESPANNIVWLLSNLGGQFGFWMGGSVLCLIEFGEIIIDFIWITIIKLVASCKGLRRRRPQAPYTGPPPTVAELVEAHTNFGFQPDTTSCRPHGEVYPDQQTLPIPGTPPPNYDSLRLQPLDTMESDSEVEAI
T1 sequence (Q9WU39 1-143): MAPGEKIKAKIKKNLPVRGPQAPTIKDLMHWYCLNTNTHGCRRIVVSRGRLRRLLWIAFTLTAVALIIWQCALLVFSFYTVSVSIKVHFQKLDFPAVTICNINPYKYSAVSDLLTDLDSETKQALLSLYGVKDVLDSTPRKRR
T1 sequence (Q9WU39 187-655): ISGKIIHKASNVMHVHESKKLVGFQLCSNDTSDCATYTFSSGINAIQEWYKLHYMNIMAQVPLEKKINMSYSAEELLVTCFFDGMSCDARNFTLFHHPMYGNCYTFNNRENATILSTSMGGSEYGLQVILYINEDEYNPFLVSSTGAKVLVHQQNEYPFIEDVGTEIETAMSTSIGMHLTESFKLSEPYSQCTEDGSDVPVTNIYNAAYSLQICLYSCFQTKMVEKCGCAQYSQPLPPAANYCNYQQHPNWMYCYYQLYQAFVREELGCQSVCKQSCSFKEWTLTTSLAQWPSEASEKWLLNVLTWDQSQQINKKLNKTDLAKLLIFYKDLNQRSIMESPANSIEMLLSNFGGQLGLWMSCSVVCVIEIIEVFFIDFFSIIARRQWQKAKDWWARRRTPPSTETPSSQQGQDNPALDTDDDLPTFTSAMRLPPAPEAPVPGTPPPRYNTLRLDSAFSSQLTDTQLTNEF

## Ac-DLRGALPHPLQRLRTPPPPNPARSAR-NH2 [α-26]
  effect of prostasin co-expression on α-26-dependent inhibition of ENaC: significantly reduced the efficacy

From patent US20070149456A1, “Epithelial sodium channel inhibiting agents and uses therefor” (University of Pittsburgh, priority 2005, published 2007)
